Assay results published in patent US20240374612A1, “IMIDAZOBENZO[…] TREATMENT OF COGNITIVE AND MOOD SYMPTOMS” (UWM Research Foundation, Inc., priority 2021, published 2024).
“Also recorded” adds a separate entry of the source.

Columns and labels:
[1] = tested on: C57/Bl6 mice subjected to chronic restraint stress (working memory deficit); assay: Y-maze alternation task after chronic restraint stress (CRS); assay type: in vivo; conditions: acute, 30 min before testing, vs CRS vehicle
Experimental: Young Animals and chronic stress procedure: C57/Bl6 mice, males and females at 8 weeks old and are kept in normal housing conditions (12 h light ON cycle starting at 7 am/water and food ad libitum) for one week. During this week, animals are single housed and handled to reduce the anxiety-like response toward the experimenter. To induce a working memory deficit, mice are subjected to a chronic restraint stress protocol (CRS). They are placed in a 50 mL Falcon® tube, twice a day, for 1 hour during their diurnal cycle. The time of occurrence of the stress is randomized every day to avoid predictability. CRS is not applied on testing days. Y-maze test occurs 15 hours minimum after the last stressor.
Protocol: Mice are first habituated to the Y-maze apparatus and distal cues during 2 consecutive days over a 10 min free exploration session (one session per day). The next day, animals perform a training session consisting in seven successive trials separated by a 30 s inter-trial interval (ITI); during this training session, mice are familiarized with the experimental procedure (opening and closing of the doors and confinement into the goal arms). For each trial, mice remain in the start-box for a 30 s ITI. Then, the door is opened and the mouse is allowed to enter freely one of the two goal arms; the chosen arm is closed and the choice is recorded. After a 30 s confinement period into the chosen arm, the mouse is removed and brought back to the start-box for a second trial identical to the first one and this procedure is repeated over the series of trials.
The same general procedure used in the training session is implemented 24 h later, except that the ITI was lengthened to 90 s. For this experiment, animals are acutely injected i.p. with vehicle or drug, 30 minutes before the beginning of the test. To dissociate memory deficits from an eventual progressive loss of motivation to alternate over the series, an 8th trial is added to the series which is separated from the 7th trial by a shorter ITI (5 s). All animals failing to alternate at the 8th trial are excluded. The mean alternation rate is calculated and is expressed in percentage (number of alternation done by the animal/total number of alternation possible×100)±SEM. The percentage of alternation during the entire task is considered as an index of working memory performance (50% of being a random alternation rate). Factorial ANOVA is applied to the data to reveal differences between groups. If the ANOVA is significant for group effect (p<0.05), Scheffe post-hoc analysis are conducted to identify which groups are different from each other.
Drug preparation and administration: All drugs are diluted in a vehicle solution containing 85% H2O, 14% propylene glycol (Sigma Aldrich) and 1% Tween 80 (Sigma Aldrich). Working solutions are prepared at a concentration of 10 mg/mL and administered i.p. adjusted to the body weight of each animal. Doses used are either 1, 5, 10 or 20 mg/kg. For all Y maze experiments, animals are acutely injected i.p. with vehicle or drug, 30 minutes before the beginning of the test.

[2] = tested on: mice (anxiety like behaviors); assay: Elevated plus maze (EPM); assay type: in vivo; conditions: vs vehicle
Experimental: The EPM is commonly used in preclinical rodent models to assess anxiety-like behaviors. Briefly, mice are placed in a cross-shaped maze raised at 55 cm from the floor, with 2 open arms facing each other, and 2 closed arms facing each other. During testing, mice are individually placed in the center of the maze facing an open arm and allowed to explore for 10 minutes. Throughout testing, the exploration of each mouse is recorded using a digital camera mounted on the ceiling. After 10 minutes of exploration, the camera is stopped and the mouse is removed from the maze and returned to its home cage. The videos are analyzed using Ethovision XT14 software. Specific parameters considered are: % time spent in the open arms, calculated using ([(total time spent in open arms)/(total time spent in open arms+total time spent in closed arms)]*100) and the number of open arm entries.

[3] = 3 mg/kg i.p., 30 min before testing

SMILES | reversal of CRS-induced reduction of alternation rate (Y-maze) ([1]; 10 mg/kg i.p.) | reversal of CRS-induced reduction of alternation rate (Y-maze) ([1]; 30 mg/kg i.p.) | reversal of CRS-induced reduction of alternation rate (Y-maze) ([1]; 3 mg/kg i.p.) | also measured
C#Cc1ccc2c(c1)C(c1ccccc1Cl)=N[C@H](C)c1c(-c3nc(C)no3)ncn1-2 [PM-III-57R, (R)-5-(6-(2-chlorophenyl)-8-ethynyl-4-methyl-4H-benzo[f]imidazo[1,5-a][1,4]diazepin-3-yl)-3-methyl-1,2,4-oxadiazole] | significantly reversed; also recorded: significantly improved alternation rate | – | – | –
C#Cc1ccc2c(c1)C(c1ccccc1Cl)=N[C@@H](C)c1c(-c3nc(C)no3)ncn1-2 [FR-PM-III-57S, (S)-5-(6-(2-chlorophenyl)-8-ethynyl-4-methyl-4H-benzo[f]imidazo[1,5-a][1,4]diazepin-3-yl)-3-methyl-1,2,4-oxadiazole] | significantly reversed; also recorded: significantly improved alternation rate | trend level effect | – | –
CC(C)c1noc(-c2ncn3c2[C@@H](C)N=C(c2ccccc2F)c2cc(Cl)ccc2-3)n1 [MYM-IV-46, (R)-5-(8-chloro-6-(2-fluorophenyl)-4-methyl-4H-benzo[f]imidazo[1,5-a][1,4]diazepin-3-yl)-3-isopropyl-1,2,4-oxadiazole] | significantly reversed; also recorded: improved alternation rate | trend level effect | no significant effect | –
C[C@H]1N=C(c2ccccc2F)c2cc(Cl)ccc2-n2cnc(-c3nc(C4CC4)no3)c21 [MYM-IV-47, (R)-5-(8-chloro-6-(2-fluorophenyl)-4-methyl-4H-benzo[f]imidazo[1,5-a][1,4]diazepin-3-yl)-3-cyclopropyl-1,2,4-oxadiazole] | significantly reversed | significantly reversed | no significant effect | –
C[C@H]1N=C(c2ccccc2F)c2cc(-c3ccccc3)ccc2-n2cnc(C(=O)N(C)C)c21 [MYM-III-41, (R)-6-(2-fluorophenyl)-N,N,4-trimethyl-8-phenyl-4H-benzo[f]imidazo[1,5-a][1,4]diazepine-3-carboxamide] | reversed | – | – | reversal of CRS-induced reduction of alternation rate (Y-maze) ([1]; 5 mg/kg i.p.): reversed
C#Cc1ccc2c(c1)C(c1ccccc1Cl)=N[C@@H](C)c1c(C(=O)NC)ncn1-2 [FR-III-17, (S)-6-(2-chlorophenyl)-8-ethynyl-N,4-dimethyl-4H-benzo[f]imidazo[1,5-a][1,4]diazepine-3-carboxamide] | – | – | significantly reversed | % distance traveled in the open arms (EPM) [2, 3]: significantly increase; % entries in the open arms (EPM) [2, 3]: significantly increase; % time in the open arms (EPM) [2, 3]: significantly increase; reversal of CRS-induced reduction of alternation rate (Y-maze) ([1]; 0.3 mg/kg i.p.): significantly reversed; reversal of CRS-induced reduction of alternation rate (Y-maze) ([1]; 1 mg/kg i.p.): significantly reversed
C#Cc1ccc2c(c1)C(c1ccccc1Cl)=N[C@H](C)c1c(C(=O)N(C)C)ncn1-2 [PM-II-26, (R)-6-(2-chlorophenyl)-8-ethynyl-N,N,4-trimethyl-4H-benzo[f]imidazo[1,5-a][1,4]diazepine-3-carboxamide] | reversed (p<0.001) | a trend was observed; also recorded: reversed (trend: p=0.1) | – | –
CCc1noc(-c2ncn3c2CN=C(c2ccccc2F)c2cc(C4CC4)ccc2-3)n1 [MYM-III-43, 5-(8-cyclopropyl-6-(2-fluorophenyl)-4H-benzo[f]imidazo[1,5-a][1,4]diazepin-3-yl)-3-ethyl-1,2,4-oxadiazole] | reversed | reversed | reversed | –
CCc1noc(-c2ncn3c2[C@@H](C)N=C(c2ccccc2F)c2cc(C4CC4)ccc2-3)n1 [GL-IV-03, (R)-5-(8-Cyclopropyl-6-(2-fluorophenyl)-4-methyl-4H-benzo[f]imidazo[1,5-a][1,4]diazepin-3-yl)-3-ethyl-1,2,4-oxadiazole] | – | reversed | reversed | –
Cc1noc(-c2ncn3c2[C@@H](C)N=C(c2ccccc2F)c2cc(Br)ccc2-3)n1 [GL-III-60, (R)-5-(8-Bromo-6˜(2-fluorophenyl)-4-methyl-4H-benzo[f]imidazo[1,5-a][1,4]diazepin-3-yl)-3-methyl-1,2,4-oxadiazole] | reversed | reversed | – | –
C#Cc1ccc2c(c1)C(c1ccccc1Cl)=N[C@H](C)c1c(-c3nc(CC)no3)ncn1-2 [PM-II-84E, (R)-5-(6-(2-chlorophenyl)-8-ethynyl-4-methyl-4H-benzo[f]imidazo[1,5-a][1,4]diazepin-3-yl)-3-ethyl-1,2,4-oxadiazole] | – | reversed | – | time spent in the open arms (EPM) ([2]; 10 mg/kg i.p., 30 min before testing): significant effect; also recorded: increasing time spent in the open arms; distance travelled in the open arms (EPM) ([2]; 10 mg/kg i.p.): trend level effect
C#Cc1ccc2c(c1)C(c1ccccn1)=N[C@@H](C)c1c(C(=O)NC)ncn1-2 [MYM-III-29, (S)-8-ethynyl-N,4-dimethyl-6-(pyridin-2-yl)-4H-benzo[f]imidazo[1,5-a][1,4]diazepine-3-carboxamide] | reversed (p<0.05) | – | no significant difference between groups | distance travelled in the open arms (EPM) ([2]; 10 mg/kg i.p.): increasing distance travelled in the open arms
C#Cc1ccc2c(c1)C(c1ccccc1F)=N[C@H](C)c1c(-c3nc(C4CC4)no3)ncn1-2 [MYM-V-28, (R)-3-cyclopropyl-5-(8-ethynyl-6-(2-fluorophenyl)-4-methyl-4H-benzo[f]imidazo [1,5-a][1,4]diazepin-3-yl)-1,2,4-oxadiazole] | significantly reversed; also recorded: significantly improved alternation rate | significantly reversed; also recorded: significantly improved alternation rate | – | –
